Biological target: T1, HK1 association with the mitochondria (Homo sapiens, UniProt P19367)
T1 construct: human skin SCC A431 cells (which express both HK1 and HK2); endogenous in cells; host or cells: A431
Assay: Western Blot of mitochondrial fraction, HK1 in A431 cells
Format: cell-based
Settings: similar experimental setup, data not shown
Method: A431 cells were treated for 2 hours at 37° C. with various concentrations of Formula C in medium without FCS and 2 mM L-Gln. Mitochondria were isolated using Mitochondria Isolation Kit (Thermo Fisher Scientific, Rockford, IL) followed by a WB. Semi-quantification of the WB was done with Imagequant TL software v8.1 (GE healthcare Life Sciences, Little Chalfont, United Kingdom). TIM22 was used as a loading control for mitochondria. Cyclophilin A (PPIA) was used as a cytosolic marker.
Antibodies used: anti-rabbit HK1 (C-20245) and HK2 (C-28765) from CST (Danvers, MA), anti-rabbit PPIA (ab41684, Abcam), anti-rabbit TIM22 (14927-1-AP, Proteintech Group Inc., Rosemont, IL), anti-rabbit Cytochrome C (PA1118, Boster Biological Technology, Pleasanton, CA). Detection was performed using secondary antibodies: peroxidase-conjugated Affinipure goat anti-rabbit IgG (H+L) or goat anti-mouse IgG (H+L) (111-035-003 and 115-035-003, Jackson ImmunoResearch, West Grove, PA), and development was using the ECL kit WesternBright™ ECL (K-12045-D10, Advansta, Menlo Park, California, USA).

T1 sequence (P19367 whole entry): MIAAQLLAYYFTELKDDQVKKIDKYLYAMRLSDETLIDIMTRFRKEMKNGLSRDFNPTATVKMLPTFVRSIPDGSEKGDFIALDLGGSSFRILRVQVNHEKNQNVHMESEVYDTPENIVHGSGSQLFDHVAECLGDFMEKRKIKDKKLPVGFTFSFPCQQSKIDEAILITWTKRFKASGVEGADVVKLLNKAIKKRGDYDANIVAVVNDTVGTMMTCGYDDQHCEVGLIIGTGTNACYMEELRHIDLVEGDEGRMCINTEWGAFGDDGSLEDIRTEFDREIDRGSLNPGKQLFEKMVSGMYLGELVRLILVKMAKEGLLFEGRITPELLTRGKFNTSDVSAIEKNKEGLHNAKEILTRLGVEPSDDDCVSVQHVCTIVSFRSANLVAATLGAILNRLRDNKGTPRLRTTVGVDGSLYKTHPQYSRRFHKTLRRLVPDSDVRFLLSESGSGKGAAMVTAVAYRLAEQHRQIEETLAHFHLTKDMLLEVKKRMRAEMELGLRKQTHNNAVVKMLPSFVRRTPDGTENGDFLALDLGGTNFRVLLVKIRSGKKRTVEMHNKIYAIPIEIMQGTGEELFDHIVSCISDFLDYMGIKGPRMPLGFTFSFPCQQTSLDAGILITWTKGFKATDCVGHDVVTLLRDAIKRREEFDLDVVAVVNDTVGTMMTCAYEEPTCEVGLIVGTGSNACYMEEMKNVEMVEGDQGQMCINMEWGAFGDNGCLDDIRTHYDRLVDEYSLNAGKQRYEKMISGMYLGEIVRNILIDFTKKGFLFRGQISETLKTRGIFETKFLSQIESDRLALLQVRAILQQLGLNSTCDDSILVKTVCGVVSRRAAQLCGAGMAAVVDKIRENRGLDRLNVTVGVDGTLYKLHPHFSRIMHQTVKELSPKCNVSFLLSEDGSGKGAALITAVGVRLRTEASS

CC/C=C\CC1C(=O)CCC1CC(=O)Oc1cccc2cccnc12 (stereo not shown) [Formula C]
HK1 association with the mitochondria: not affected

— US12527782B2, “Use of hexokinase 2/mitochondria-detaching compounds for treating hexokinase-2 (HK2)-expressing cancers” (Vidac Pharma Ltd., priority 2016, dated 2026)
